Reference: article PMC6155255, “Synthetic Peptides Derived from Bovine Lactoferricin Exhibit Antimicrobial Activity against E. coli ATCC 11775, S. maltophilia ATCC 13636 and S. enteritidis ATCC 13076” (Molecules : A Journal of Synthetic Chemistry and Natural …, 2017)
Like-named read-outs stand apart in the source and are kept apart here. Positions of bridges follow the written chain, without caps; N, C: chain ends. Non-standard residues stand in square brackets, D forms with d. Residues, ends and D or L forms follow the SMILES beside them. Chains are numbered I, II in the order given. No end group written: not given here. Ahx = NCCCCCC(=O)O

What was measured:
[1] = tested on: E. coli ATCC 11775; type: cell-based, Escherichia coli
Experimental: (§1) The MIC and MBC were determined using a microdilution assay. In brief, bacterial strains were incubated for 18 to 24 h at 37 °C in an MH broth until an optical density of 0.15 to 0.30 (620 nm) was obtained. 90 µL of Mueller-Hinton broth (MHB) were mixed with 90 µL of peptide (440 µg/mL), and using a 96-well microtiter plate peptide, serial dilution (200, 100, 50, 25, 12.5, and 6.2 µg/mL) was performed. 10 µL of inoculum (2 × 10^6 CFU/mL) was added to each well. Final volume in each well was 100 µL. Then they were incubated for 24 h at 37 °C; and the absorbance at 620 nm was measured using an Asys Expert Plus ELISA reader. To determine the MBC, an aliquot was taken from each well and was spread onto a MHA plate. After 24 h at 37 °C, the CFU/mL was determined. Each of these tests was performed twice.

[2] = tested on: S. maltophilia ATCC 13636; type: cell-based, Stenotrophomonas maltophilia
Experimental: as §1

[3] = tested on: S. enteritidis ATCC 13076; type: cell-based, Salmonella enteritidis
Experimental: as §1

[4] = tested on: E. coli ATCC 25922; details: cited from earlier work
Experimental: This apparent discrepancy could be related to the method used for determining the MIC [46, 47]. The antibacterial activity of LfcinB against E. coli IID861 was determined using the microdilution method with Mueller-Hinton broth (MIC = 50 µg/mL) or peptone-based broth (MIC = 6 µg/mL). […] Antibacterial activity against E. coli ATCC 25922 has also been reported, s ...

[5] = tested on: E. coli K88; parameters: method as in PMID 11248238, PMID 21607695, doi:10.1002/(SICI)1099-1387(199901)5:1<32::AID-PSC172>3.0.CO; details: cited from earlier work
[6] = tested on: E. coli ATCC 25922
[7] = E. coli ATCC 11775, aliquot of each well spread on MHA plate, 24 h at 37 °C, CFU/mL, performed twice
[8] = E. coli ATCC 11775, microdilution, Mueller-Hinton broth, 24 h at 37 °C, absorbance 620 nm, 6.2-200 µg/mL tested, performed twice
[9] = E. coli ATCC 11775, value in brackets (µM), aliquot spread on MHA plate, 24 h at 37 °C, performed twice
[10] = E. coli ATCC 11775, value in brackets (µM), microdilution, Mueller-Hinton broth, 24 h at 37 °C, performed twice
[11] = S. enteritidis ATCC 13076, aliquot of each well spread on MHA plate, 24 h at 37 °C, CFU/mL, performed twice
[12] = S. enteritidis ATCC 13076, microdilution, Mueller-Hinton broth, 24 h at 37 °C, absorbance 620 nm, 6.2-200 µg/mL tested, performed twice
[13] = S. maltophilia ATCC 13636, aliquot of each well spread on MHA plate, 24 h at 37 °C, CFU/mL, performed twice
[14] = S. maltophilia ATCC 13636, microdilution, Mueller-Hinton broth, 24 h at 37 °C, absorbance 620 nm, 6.2-200 µg/mL tested, performed twice

Row | Molecule | MBC ([1]; ATCC 11775, 24 h) | MIC ([1]; ATCC 11775, 24 h) | MBC [1, 7] | MIC [1, 8] | MBC [1, 9] | MIC [1, 10] | MBC ([2]; ATCC 13636, 24 h) | MIC ([2]; ATCC 13636, 24 h) | MBC ([3]; ATCC 13076, 24 h) | MIC ([3]; ATCC 13076, 24 h) | MBC [3, 11] | MIC [3, 12] | MIC ([4]; palindromic sequences) | MBC [2, 13] | MIC [2, 14] | MIC [4] | MIC [5] | MIC [6] | MIC ([3]; S. enteritidis ATCC 13076, value in brackets (µM), microdilution, Mueller-Hinton broth, 24 h at 37 °C, performed twice)
1 | N=C(N)NCCC[C@@H]1NC(=O)[C@H](Cc2c[nH]c3ccccc23)NC(=O)[C@H](CCC(N)=O)NC(=O)[C@H](Cc2c[nH]c3ccccc23)NC(=O)[C@H](CCCNC(=N)N)NC(=O)[C@H](CCCNC(=N)N)NC(=O)[C@@H](N)CSSC[C@@H](C(N)=O)NC(=O)CCCCCNC1=O [LfcinB (20–25)Cyc] (H-CRRWQWR[Ahx]C-NH2; disulfide 1-9; N-terminus assumed) | 19 µM | 19 µM | 25 µg/mL | 25 µg/mL | 21 µM | 21 µM | 200 µg/mL | 200 µg/mL | 42 µM | 42 µM | 50 µg/mL | 50 µg/mL |  |  |  |  |  |  | 
2 | WRWRW |  |  |  |  |  |  |  |  |  |  |  |  | 15 µg/mL |  |  |  |  |  | 
3 | RWRWR |  |  |  |  |  |  |  |  |  |  |  |  | 200 µg/mL |  |  |  |  |  | 
4 | CSCC[C@H](NC(=O)[C@H](CCCNC(=N)N)NC(=O)[C@H](Cc1c[nH]c2ccccc12)NC(=O)[C@H](CCC(N)=O)NC(=O)[C@H](Cc1c[nH]c2ccccc12)NC(=O)[C@H](CCCNC(=N)N)NC(=O)[C@H](CCCNC(=N)N)NC(=O)[C@H](CS)NC(=O)[C@H](CCCCN)NC(=O)[C@@H](N)Cc1ccccc1)C(=O)N[C@@H](CCCCN)C(=O)N[C@@H](CCCCN)C(=O)N[C@@H](CC(C)C)C(=O)NCC(=O)N[C@@H](C)C(N)=O [LfcinB 17–31] | 13 µM | 13 µM | 25 µg/mL | 25 µg/mL | 12.5 µM | 12.5 µM | > 100 µM | > 100 µM | 100 µM | > 100 µM | 200 µg/mL | > 200 µg/mL |  | > 200 µg/mL | > 200 µg/mL |  |  |  | 
5 | RRWQWR-NH2 [LfcinB 20–25] | 13 µM | 13 µM |  |  |  |  | > 203 µM | > 203 µM | 102 µM | 102 µM |  |  |  |  |  |  |  |  | 
6 | FKCRRWAQRWRMKKLGAPSITCVRRAF [synthetic peptide homolog to LfcinB, 27 residues, from the literature] |  |  |  |  |  |  |  |  |  |  |  |  |  |  |  | 30 µg/mL | 64 µg/mL |  | 
7 | N=C(N)NCCC[C@H](NC(=O)[C@H](Cc1c[nH]c2ccccc12)NC(=O)[C@H](CCC(N)=O)NC(=O)[C@H](Cc1c[nH]c2ccccc12)NC(=O)[C@H](CCCNC(=N)N)NC(=O)[C@@H](N)CCCNC(=N)N)C(=O)NCCCC[C@H](NC(=O)[C@H](CCCNC(=N)N)NC(=O)[C@H](Cc1c[nH]c2ccccc12)NC(=O)[C@H](CCC(N)=O)NC(=O)[C@H](Cc1c[nH]c2ccccc12)NC(=O)[C@H](CCCNC(=N)N)NC(=O)[C@@H](N)CCCNC(=N)N)C(=O)NCCCCCC(=O)N[C@@H](CSSC[C@H](NC(=O)CCCCCNC(=O)[C@H](CCCCNC(=O)[C@H](CCCNC(=N)N)NC(=O)[C@H](Cc1c[nH]c2ccccc12)NC(=O)[C@H](CCC(N)=O)NC(=O)[C@H](Cc1c[nH]c2ccccc12)NC(=O)[C@H](CCCNC(=N)N)NC(=O)[C@@H](N)CCCNC(=N)N)NC(=O)[C@H](CCCNC(=N)N)NC(=O)[C@H](Cc1c[nH]c2ccccc12)NC(=O)[C@H](CCC(N)=O)NC(=O)[C@H](Cc1c[nH]c2ccccc12)NC(=O)[C@H](CCCNC(=N)N)NC(=O)[C@@H](N)CCCNC(=N)N)C(N)=O)C(N)=O [LfcinB (20–25)4] (I: H-RRWQWRK[Ahx]C-NH2 / II: H-RRWQWRK[Ahx]C-NH2 / III: H-RRWQWR / IV: H-RRWQWR; amide I:7-III:C, II:7-IV:C; disulfide I:9-II:9) | 5 µM | 5 µM | 25 µg/mL | 25 µg/mL | 5.5 µM | 5.5 µM | 44 µM | > 44 µM | 22 µM | 44 µM | 100 µg/mL | 200 µg/mL |  | 200 µg/mL | > 200 µg/mL |  |  |  | 
8 | KCRRWAQRWRMKKLGAPSITCVR [shorter peptide, 23 residues, from the literature] |  |  |  |  |  |  |  |  |  |  |  |  |  |  |  | 30 µg/mL |  |  | 
9 | RWQWRWQWR-NH2 [LfcinB 21–25Pal] | 8 µM | 8 µM |  |  |  |  | 136 µM | > 136 µM | 17 µM | 17 µM |  |  |  |  |  |  |  | 40 µg/mL | 
10 | N=C(N)NCCC[C@H](NC(=O)[C@H](Cc1c[nH]c2ccccc12)NC(=O)[C@H](CCC(N)=O)NC(=O)[C@H](Cc1c[nH]c2ccccc12)NC(=O)[C@H](CCCNC(=N)N)NC(=O)[C@@H](N)CCCNC(=N)N)C(=O)NCCCC[C@H](NC(=O)[C@H](CCCNC(=N)N)NC(=O)[C@H](Cc1c[nH]c2ccccc12)NC(=O)[C@H](CCC(N)=O)NC(=O)[C@H](Cc1c[nH]c2ccccc12)NC(=O)[C@H](CCCNC(=N)N)NC(=O)[C@@H](N)CCCNC(=N)N)C(=O)NCCCCCC(N)=O [LfcinB (20–25)2] (I: H-RRWQWRK[Ahx]-NH2 / II: H-RRWQWR; amide I:7-II:C) | 3 µM | 3 µM | 6.2 µg/mL | 6.2 µg/mL | 2.8 µM | 2.8 µM | 22.4 µM | 22.4 µM | 5.6 µM | 6 µM | 12.5 µg/mL | 12.5 µg/mL |  | 50 µg/mL | 50 µg/mL |  |  |  | 5.6 µM
11 | WRYRW |  |  |  |  |  |  |  |  |  |  |  |  | 100 µg/mL |  |  |  |  |  | 
